Measured values: patent EP1401829B1, “NOVEL HETEROCYCLIC ANTIBACTERIAL COMPOUNDS” (Microbiotix, Inc., priority 2001, dated 2002)
≈ marks a conversion by molar mass, not a printed value.

Key:
E. fecium = assay: Minimal Inhibitory Concentration (MIC) determination, 96 well plates; assay type: cell-based, Enterococcus fecium; conditions: Enterococcus; HBI medium, 16 to 18 hours at 37°C; read-out: MIC (µg/ml) E. fecium
Description: (§1) The following methods were used to characterize representative compounds. Minimal Inhibitory Concentration (MIC) determinations. MIC values were determined in 96 well plates, with bacterial growth monitored at OD 600 nm in 200µl following an initial bacterial seeding at approximately 1x10^5 colony forming units (CFU)/ml. Each drug is evaluated at five concentrations, with five data points at each dilution. MIC values (µg/ml) were determined against actively growing cultures in Heart-Brain Infusion (HBI) medium. Cell growth in cultures supplemented with a test compound was calculated as a percent of control at OD 600 nm after 16 to 18 hours at 37°C. […] Polymerase IIIC (Pol IIIC) assay. DNA polymerase activity (or inhibition thereof) was measured in a 96-well plate format. B. subtilis Pol IIIC was isolated as described by Hammond and Brown (Protein Expr. Purif., 3: 65-70 (1992)). Each 25 µl assay contained 30 mM Tris, pH 7.5, 10 mM magnesium acetate, 4 mM dithiothreitol, 20% glycerol, with 25 µM dATP, dCTP, dGTP and 10 µM dTTP (^3H-labelled at 1.44 Ci/mmole) and 0.4 mg/ml activated calf thymus DNA as substrates, as described previously (see Barnes et al, op. cit). Assays were initiated by the addition of 0.025 to 0.06 units of enzyme 1 unit is the amount required to incorporate 250 pmoles of [^3H] dTMP in a standard assay), incubated for 10 minutes at 30°C and terminated by the addition of 200 µl of cold 10% trichloroacetic acid (TCA),10 mM sodium pyrophosphate. Precipitated labeled DNA was collected on glass fiber filter plates, washed, dried, and counted in a liquid scintillation counter. Determination of Ki values. DNA polymerase activity was measured in a 96-well plate format in the absence of dGTP or dATP, depending on the structure of the test compound. Each 25 µl assay contained 30 mM Tris, pH 7.5, 10 mM magnesium acetate, 4 mM dithiothreitol, 20% glycerol, with 25 µM dATP, dCTP, and 10 µM dTTP (^3H-labelled at 1.44 Ci/mmole) and 0.4 mg/ml activated calf thymus DNA as substrates, as described previously. […] Assays were initiated by the addition of 0.025 to 0.06 units of enzyme (1 unit is the amount required to incorporate 250 pmoles of [^3H] dTMP in a standard assay), incubated for 10 minutes at 30 °C and terminated by the addition of 200 µl of cold 10% trichloroacetic acid, 10 mM sodium pyrophosphate. Precipitated labeled DNA was collected on glass fiber filter plates, washed, dried, and counted in a liquid scintillation counter. Ki is the concentration of test compound that reduces the control polymerase IIIC activity by 50 percent.
(§2) MIC values were determined for the Gram positive bacteria Bacillus subtilis, Staphylococcus aureus (two strains), Enterococcus fecalis, Enterococcus fecium, and for the Gram negative bacterium Escherichia coli.

E. fecalis = assay: as above; assay type: cell-based, Enterococcus fecalis; conditions: Enterococcus; HBI medium, 16 to 18 hours at 37°C; read-out: MIC (µg/ml) E. fecalis
Description: as §1, §2

B. subtilis Pol IIIC = biological target: T1, B. subtilis Pol IIIC (Bacillus subtilis, UniProt P13267); assay: Polymerase IIIC (Pol IIIC) assay, determination of Ki values; assay type: biochemical; conditions: Ki (µM) Pol IIIC, assay in absence of dGTP or dATP; Ki is the concentration that reduces control polymerase IIIC activity by 50 percent
T1 construct: made in house
Description: as §1

E. coli = assay: Minimal Inhibitory Concentration (MIC) determination, 96 well plates; assay type: cell-based, Escherichia coli; conditions: Escherichia coli; HBI medium, 16 to 18 hours at 37°C; read-out: MIC (µg/ml) E. coli
Description: (§3) The following methods were used to characterize representative compounds. Minimal Inhibitory Concentration (MIC) determinations. MIC values were determined in 96 well plates, with bacterial growth monitored at OD 600 nm in 200µl following an initial bacterial seeding at approximately 1x10^5 colony forming units (CFU)/ml. Each drug is evaluated at five concentrations, with five data points at each dilution. MIC values (µg/ml) were determined against actively growing cultures in Heart-Brain Infusion (HBI) medium. Cell growth in cultures supplemented with a test compound was calculated as a percent of control at OD 600 nm after 16 to 18 hours at 37°C. This plate format conserves test compound and provides precise, quantitative data with low standard deviation determinations. Polymerase IIIC (Pol IIIC) assay. DNA polymerase activity (or inhibition thereof) was measured in a 96-well plate format. B. subtilis Pol IIIC was isolated as described by Hammond and Brown (Protein Expr. Purif., 3: 65-70 (1992)). Each 25 µl assay contained 30 mM Tris, pH 7.5, 10 mM magnesium acetate, 4 mM dithiothreitol, 20% glycerol, with 25 µM dATP, dCTP, dGTP and 10 µM dTTP (^3H-labelled at 1.44 Ci/mmole) and 0.4 mg/ml activated calf thymus DNA as substrates, as described previously (see Barnes et al, op. cit). Assays were initiated by the addition of 0.025 to 0.06 units of enzyme 1 unit is the amount required to incorporate 250 pmoles of [^3H] dTMP in a standard assay), incubated for 10 minutes at 30°C and terminated by the addition of 200 µl of cold 10% trichloroacetic acid (TCA),10 mM sodium pyrophosphate. Precipitated labeled DNA was collected on glass fiber filter plates, washed, dried, and counted in a liquid scintillation counter. Determination of Ki values. DNA polymerase activity was measured in a 96-well plate format in the absence of dGTP or dATP, depending on the structure of the test compound. Each 25 µl assay contained 30 mM Tris, pH 7.5, 10 mM magnesium acetate, 4 mM dithiothreitol, 20% glycerol, with 25 µM dATP, dCTP, and 10 µM dTTP (^3H-labelled at 1.44 Ci/mmole) and 0.4 mg/ml activated calf thymus DNA as substrates, as described previously. To each well were added 2 µl of compound solution to give final concentrations ranging from 20 - 0.027 µg/ml in the assay. Assays were initiated by the addition of 0.025 to 0.06 units of enzyme (1 unit is the amount required to incorporate 250 pmoles of [^3H] dTMP in a standard assay), incubated for 10 minutes at 30 °C and terminated by the addition of 200 µl of cold 10% trichloroacetic acid, 10 mM sodium pyrophosphate. Precipitated labeled DNA was collected on glass fiber filter plates, washed, dried, and counted in a liquid scintillation counter. Ki is the concentration of test compound that reduces the control polymerase IIIC activity by 50 percent.
as §2

S.aureus (Smith) = assay: as above; assay type: cell-based, Staphylococcus aureus; conditions: Staphylococcus aureus; HBI medium, 16 to 18 hours at 37°C; read-out: MIC (µg/ml) S.aureus (Smith)
Description: as §1, §2

B. subtilis = assay: as above; assay type: cell-based, Bacillus subtilis; conditions: Bacillus subtilis; HBI medium, 16 to 18 hours at 37°C; read-out: MIC (µg/ml) B. subtilis
Description: as §1, §2

S. aureus = assay: as above; assay type: cell-based, Staphylococcus aureus; conditions: Staphylococcus aureus; HBI medium, 16 to 18 hours at 37°C; read-out: MIC (µg/ml) S. aureus
Description: as §3, §2

T1 sequence (P13267 whole entry): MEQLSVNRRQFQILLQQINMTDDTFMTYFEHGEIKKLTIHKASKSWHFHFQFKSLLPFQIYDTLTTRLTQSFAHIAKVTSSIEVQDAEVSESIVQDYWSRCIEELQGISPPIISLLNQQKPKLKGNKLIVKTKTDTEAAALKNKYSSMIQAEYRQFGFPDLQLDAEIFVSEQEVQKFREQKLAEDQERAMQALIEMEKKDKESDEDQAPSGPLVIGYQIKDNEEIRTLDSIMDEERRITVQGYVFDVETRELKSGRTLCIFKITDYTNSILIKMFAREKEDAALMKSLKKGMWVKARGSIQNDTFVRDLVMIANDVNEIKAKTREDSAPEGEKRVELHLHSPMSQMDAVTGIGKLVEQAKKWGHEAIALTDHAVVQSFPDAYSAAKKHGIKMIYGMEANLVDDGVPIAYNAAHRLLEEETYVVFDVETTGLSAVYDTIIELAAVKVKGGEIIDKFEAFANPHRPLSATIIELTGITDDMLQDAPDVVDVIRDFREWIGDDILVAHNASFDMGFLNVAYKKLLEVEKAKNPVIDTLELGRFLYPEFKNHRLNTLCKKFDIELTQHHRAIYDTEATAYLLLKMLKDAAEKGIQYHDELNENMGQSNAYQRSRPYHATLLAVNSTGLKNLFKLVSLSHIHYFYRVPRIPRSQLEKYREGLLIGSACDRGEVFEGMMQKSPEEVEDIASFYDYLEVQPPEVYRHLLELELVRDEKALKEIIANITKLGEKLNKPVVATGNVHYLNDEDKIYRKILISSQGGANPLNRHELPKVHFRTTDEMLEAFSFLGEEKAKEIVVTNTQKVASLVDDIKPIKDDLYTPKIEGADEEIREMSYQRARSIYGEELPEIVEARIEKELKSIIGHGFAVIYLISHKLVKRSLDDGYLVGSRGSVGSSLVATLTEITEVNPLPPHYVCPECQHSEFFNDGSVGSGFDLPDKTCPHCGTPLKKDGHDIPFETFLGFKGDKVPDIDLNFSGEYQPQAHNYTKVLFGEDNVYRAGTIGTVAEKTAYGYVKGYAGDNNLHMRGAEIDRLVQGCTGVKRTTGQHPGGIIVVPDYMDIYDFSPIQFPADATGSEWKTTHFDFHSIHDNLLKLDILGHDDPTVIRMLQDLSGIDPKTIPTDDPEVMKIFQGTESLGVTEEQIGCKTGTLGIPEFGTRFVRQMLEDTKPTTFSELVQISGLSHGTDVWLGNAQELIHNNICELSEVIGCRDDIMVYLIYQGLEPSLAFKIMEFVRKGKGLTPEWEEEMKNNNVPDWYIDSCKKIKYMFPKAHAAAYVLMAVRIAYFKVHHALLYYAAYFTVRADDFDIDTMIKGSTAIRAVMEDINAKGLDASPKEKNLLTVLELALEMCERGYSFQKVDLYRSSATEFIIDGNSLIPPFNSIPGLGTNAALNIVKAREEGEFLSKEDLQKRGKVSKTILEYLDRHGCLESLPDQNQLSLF

| SMILES | MIC (E. fecium) | MIC (E. fecalis) | Ki (B. subtilis Pol IIIC) | MIC (E. coli) | MIC (S.aureus (Smith)) | MIC (B. subtilis) | MIC (S. aureus) |
| --- | --- | --- | --- | --- | --- | --- | --- |
| CCc1cc(Nc2cc(=O)n(CCCCCN3CCOC4CN(c5cc6c(cc5F)c(=O)c(C(=O)O)cn6C5CC5)CC43)c(=O)[nH]2)ccc1C (stereo not shown) [Compound 84, 3-{5-[1-(1-cyclopropyl-3-carboxy-4-oxo-6-fluoro-7-quinolyl)-3-(5-oxa-1,3-diazabicyclononyl)]pentyl}-6-(3-ethyl-4-methylanilino)uracil] | 25 µg/mL (≈ 36.4 µM) | 2.5 µg/mL (≈ 3.64 µM) | 0.033 µM | > 80 µg/mL | 0.625 µg/mL (≈ 0.91 µM) | 0.313 µg/mL (≈ 0.456 µM) | 1.25 µg/mL (≈ 1.82 µM) |
| CCc1cc(Nc2cc(=O)n(CCCCCN3CCOC4CN(c5c(F)cc6c(=O)c(C(=O)O)cn(CC)c6c5F)CC43)c(=O)[nH]2)ccc1C (stereo not shown) [Compound 85, 3-{5-[1-(1-ethyl-3-carboxy4-oxo-6,8-difluoro-7-quinolyl)-3-(5-oxa-1,3-diazabicyclononyl)]pentyl)-6-(3-ethyl-4-methylanilino)uracil] | 12.5 µg/mL (≈ 18 µM) | 7.5 µg/mL (≈ 10.8 µM) | 0.059 µM | > 80 µg/mL | 6.1 µg/mL (≈ 8.81 µM) | 0.313 µg/mL (≈ 0.452 µM) | 5 µg/mL (≈ 7.22 µM) |
| CCc1cc(Nc2cc(=O)n(CCCCCN3CC4CN(c5cc6c(cc5F)c(=O)c(C(=O)O)cn6C5CC5)CC4C3)c(=O)[nH]2)ccc1C (stereo not shown) [Compound 86, 3-{5-[1-(1-cyclopropyl-3-carboxy-4-oxo-6-fluoro-7-quinolyl)-4-(1,4-diazabicyclooctyl)]pentyl}-6-(3-ethyl-4-methylanilino)uracil] | 40 µg/mL (≈ 59.6 µM) | 10 µg/mL (≈ 14.9 µM) | 0.054 µM | > 80 µg/mL | 2.5 µg/mL (≈ 3.73 µM) | 2.5 µg/mL (≈ 3.73 µM) | 5 µg/mL (≈ 7.45 µM) |
| CCc1cc(Nc2cc(=O)n(CCCCN3CCOC4CN(c5cc6c(cc5F)c(=O)c(C(=O)O)cn6C5CC5)CC43)c(=O)[nH]2)ccc1C (stereo not shown) [Compound 87, 3-{4-[1-(1-cyclopropyl-3-carboxy-4-oxo-6-fluoro-7-quinolyl)-3-(5-oxa-1,3-diazabicyclononyl)]butyl}-6-(3-ethyl-4-methylanilino)uracil] | 7.5 µg/mL (≈ 11.1 µM) | 2.5 µg/mL (≈ 3.72 µM) | 0.088 µM | > 40 µg/mL | 0.625 µg/mL (≈ 0.929 µM) | 0.313 µg/mL (≈ 0.465 µM) | 1.87 µg/mL (≈ 2.78 µM) |
| CCc1cc(Nc2cc(=O)n(CCCCN3CCN(c4cc5c(cc4F)c(=O)c(C(=O)O)cn5-c4ccc(F)cc4F)CC3C)c(=O)[nH]2)ccc1C (stereo not shown) [Compound 89, 3-{4-[1-(1-{2,4-difluorophenyl}-3-carboxy-4-oxo-6-fluoro-7-quinolyl)-3-methyl-4-piperazinyl]butyl}-6-(3-ethyl-4-methylanilino)uracil] | 0.625 µg/mL (≈ 0.872 µM) | 0.625 µg/mL (≈ 0.872 µM) | 0.018 µM | > 80 µg/mL | 0.156 µg/mL (≈ 0.218 µM) | 0.156 µg/mL (≈ 0.218 µM) | 0.313 µg/mL (≈ 0.437 µM) |
| CCc1cc(Nc2cc(=O)n(CCCCN3CCN(c4cc5c(cc4F)c(=O)c(C(=O)O)cn5-c4ccc(F)cc4F)C[C@H]3C)c(=O)[nH]2)ccc1C [Compound 90, (R)-3-{4-[1-(1-{2,4-difluorophenyl}-3-carboxy-4-oxo-6-fluoro-7-quinolyl)-3-methyl-4-piperazinyl]butyl}-6-(3-ethyl-4-methylanilino)uracil] | 1.25 µg/mL (≈ 1.74 µM) | 1.25 µg/mL (≈ 1.74 µM) | 0.017 µM | > 40 µg/mL | 0.313 µg/mL (≈ 0.437 µM) | 0.236 µg/mL (≈ 0.329 µM) | 0.625 µg/mL (≈ 0.872 µM) |
| CCc1cc(Nc2cc(=O)n(CCCCN3CCN(c4c(F)cc5c(=O)c(C(=O)O)cn(C6CC6)c5c4F)CC3CO)c(=O)[nH]2)ccc1C (stereo not shown) [Compound 91, 3-{4-[1-(1-cyclopropyl-3-carboxy-4-oxo-6,8-difluoro-7-quinolyl)-3-hydroxymethyl-4-piperazinyl]butyl}-6-(3-ethyl-4-methylanilino)uracil] | 2.5 µg/mL (≈ 3.68 µM) | 2.5 µg/mL (≈ 3.68 µM) | 0.011 µM | > 80 µg/mL | 0.625 µg/mL (≈ 0.921 µM) | 0.235 µg/mL (≈ 0.346 µM) | 1.25 µg/mL (≈ 1.84 µM) |
| CC1CN(c2c(F)cc3c(=O)c(C(=O)O)cn(C4CC4)c3c2F)CCN1CCCCn1c(=O)cc(Nc2ccc3c(c2)CCC3)[nH]c1=O (stereo not shown) [Compound 92, 3-{4-[1-(1-cyclopropyl-3-carboxy-4-oxo-6,8-difluoro-7-quinolyl)-3-methyl-4-piperazinyl]butyl}-6-(5-indanylamino)uracil] | 0.937 µg/mL (≈ 1.42 µM) | 0.625 µg/mL (≈ 0.946 µM) | 0.016 µM | 2.5 µg/mL (≈ 3.78 µM) | 0.235 µg/mL (≈ 0.356 µM) | 0.117 µg/mL (≈ 0.177 µM) | 0.313 µg/mL (≈ 0.474 µM) |
| Cc1ccc(Nc2cc(=O)n(CCCCN3CCN(c4c(F)cc5c(=O)c(C(=O)O)cn(C6CC6)c5c4F)CC3C)c(=O)[nH]2)cc1C (stereo not shown) [Compound 94, 3-{4-[1-(1-cyclopropyl-3-carboxy-4-oxo-6,8-difluoro-7-quinolyl)-3-methyl-4-piperazinyl]butyl}-6-(3,4-dimethylanilino)uracil] | 2.5 µg/mL (≈ 3.85 µM) | 1.25 µg/mL (≈ 1.93 µM) | 0.026 µM | 2.5 µg/mL (≈ 3.85 µM) | 0.313 µg/mL (≈ 0.482 µM) | 0.156 µg/mL (≈ 0.24 µM) | 0.625 µg/mL (≈ 0.963 µM) |
| CCc1cc(Nc2cc(=O)n(CCCCN3CCN(c4cc5c(cc4F)c(=O)c(C(=O)O)cn5C4CC4)C[C@H]3C)c(=O)[nH]2)ccc1C [Compound 95, (R)-3-{4-[1-(1-cyclopropyl-3-carboxy-4-oxo-6-fluoro-7-quinolyl)-3-methyl-4-piperazinyl]butyl}-6-(3-ethyl-4-methylanilino)uracil] | 0.625 µg/mL (≈ 0.969 µM) | 0.625 µg/mL (≈ 0.969 µM) | 0.012 µM | 10 µg/mL (≈ 15.5 µM) | 0.625 µg/mL (≈ 0.969 µM) | 0.235 µg/mL (≈ 0.364 µM) | 1.25 µg/mL (≈ 1.94 µM) |
